For this experiment, the target named is T1, GTPase KRas [1-37] (Homo sapiens, UniProt G3V5T7).
T1 construct: 1-37
The experiment is described as follows: wildtype Ras GTP binding inhibitors, SAR follow-up, biochemical, additional analogs, multiplex flow cytometry, Ki (AID 2038).

Drawing on BindingDB's records for doi:10.7270/Q2891498 (Nmmlsc, 2009), this text covers Ki for one molecule.

A word on the Ki: it is the dissociation constant of the complex between target and ligand, obtained from inhibition or displacement.

T1 sequence (G3V5T7 whole entry): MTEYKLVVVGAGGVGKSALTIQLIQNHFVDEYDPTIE

For `O=C1N=c2c(Br)cccc2=C1c1[nH]c2ccccc2c1NO` [7-bromanyl-3-[3-(oxidanylamino)-1H-indol-2-yl]indol-2-one], the affinity corresponds to a Ki of 5.85 µM.
